The values that follow come from patent publication US9801880B2, “Use of kinase inhibitors” (BerGenBio AS, priority 2013, dated 2017).

The test system of one assay is BaF3/wt-BCR-ABL cells. The experiment in a line: Subcutaneous BaF3/wt-BCR-ABL tumor model. To be noted: 25 (or 50) mg/kg twice per day via gavage; NSG mice. In kind it is in vivo. The procedure:
(§1) 6- to 8-week-old male NSG mice were implanted subcutaneously with 1×10^7 BaF3/wt-BCR-ABL or 1×10^7 BaF3/T315I cells per mouse into the right flank. Five days after implantation mice were randomized into groups with a mean volume of approximately 100 mm^3. […] Tumor volume was measured every 2-3 days. Animals were sacrificed at day 12 and tumors embedded for histology.

The target in the next assay is T1, c-Kit (V654A) (Homo sapiens, UniProt P10721, V654A).
T1 construct: purchased EMD Millipore Corp. (KinaseProfiler service)
Nature of the assay: KinaseProfiler kinase activity assay. In kind it is biochemical.

For assay [1], the system named is Flt3 mutations D835H, D835Y, K663Q, and A829P. The experiment in a line: Inhibition of Flt3 mutations (biochemical assays, format not stated). The source says: (§2) A summary is provided below.
A further assay has as its system BaF3/T315I cells. Nature of the assay: Subcutaneous BaF3/T315I tumor model. In kind it is in vivo. To be noted: 25 (or 50) mg/kg twice per day via gavage; NSG mice. The procedure: as §1
Assay [2] has as its target T2, Abl (Homo sapiens, UniProt P00519). The experiment in a line: KinaseProfiler kinase activity assay. It is filed as biochemical. The conditions noted are these: Abl wild-type; ATP at Km. The source says:
(§3) Detailed assay methodologies can be found in the relevant references cited herein, or in the KinaseProfiler Service Assay Protocols (v54, 2011) available from EMD Millipore (www.emdmillipore.com), or from the KinomeScan website (www.kinomescan.com), as appropriate. (For a more detailed description of KINOMEscan's assay technology, see: Fabian et al. A small molecule-kinase interaction map for clinical kinase inhibitors. Nat. Biotechnol. 23, 329-336 (2005)). A summary is provided below.
(§4) KinaseProfiler™ assays (EMD Millipore Corp. Billerica, Mass., USA) are […] with purified or partially-purified human kinases. Most of the KinaseProfiler™ assays are conducted in 20 mM MOPS, 1 mM EDTA, 0.01% Brij-35, 5% Glycerol, 0.1% b-mercaptoethanol, 1 mg/mL BSA. The assay involves the transfer of ^32P from γ-^32P-ATP to the target peptide, followed by washing and trapping of the labeled peptide on a filter. The concentration of γ-^32P-ATP used was at the established Km for ATP.

Assay [3] relates to Ba/F3 cells expressing T315I mutated Bcr-Abl1 fusion protein. Nature of the assay: WST-1 cell viability, Ba/F3 cells expressing Bcr-Abl1 T315I. In kind it is cell-based. To be noted: Mus musculus, BaF3, 48 hours, serum free, read-out: IB50 cell viability. The procedure:
(§5) Ba/F3 cells either stably overexpressing Bcr-Abl1 (A) or the mutant Bcr-Abl1 T315I (B) were cultured overnight in serum free RPMI-1640 media supplemented with 2 mM glutamine, 100 U/mL penicillin and 100 μg/mL streptomycin (Sigma-Aldrich). The following day, cells were plated in a 96-well plate with each well containing 2000 cells in a volume of 100 μl serum free RMPI media. […] The 96 well plates were incubated for 48 hours, and cell viability was measured in a WST-1 assay (Roche). Briefly, 5 μl WST-1 solution was added to each well and the 96-well plate was incubated for another 2 hours. The readout was performed in an ELSA reader at 480 nm. (measure)/620 nm (reference). Subsequent data analysis was performed with Microsoft Excel 2003 and GraphPad Prism 4.0.
On the technique in general: Formazan colour is commonly taken as a measure of viable cells.

In the next assay the target is T3, c-Kit (V560G) (Homo sapiens, UniProt P10721, V560G).
T3 construct: purchased EMD Millipore Corp. (KinaseProfiler service)
Nature of the assay: KinaseProfiler kinase activity assay. In kind it is biochemical.

A further assay deals with Stk10 (Homo sapiens, UniProt O94804). The experiment in a line: KinomeScan competition binding assay. Further details: purchased DiscoveRx Corporation (KinomeScan service).
Excerpt: as §3
(§6) KinomeScan™ assays (DiscoveRx Corporation, San Diego, Calif., USA) are active-site-directed competition binding assays. […] The amount of kinase captured in test versus control samples is determined by using a qPCR method that detects the associated DNA label on each kinase molecule. Dissociation constants (Kd) for test compound-kinase interactions are calculated by measuring the amount of kinase captured on the solid support as a function of the test compound concentration.

Another assay addresses Flt4 (Homo sapiens, UniProt P35916). The experiment in a line: KinomeScan competition binding assay. The arrangement: purchased DiscoveRx Corporation (KinomeScan service).
Excerpt: as §3, §6

The next assay deals with c-Kit (D816V) (Homo sapiens, UniProt P10721, D816V). Nature of the assay: KinomeScan competition binding assay. Further details: purchased DiscoveRx Corporation (KinomeScan service).
Excerpt: as §3, §6

The subject of assay [4] is Ba/F3 cells expressing the non-mutated Bcr-Abl1 kinase. Nature of the assay: WST-1 cell viability, Ba/F3 cells expressing Bcr-Abl1. The conditions noted are these: Mus musculus, BaF3, 48 hours, serum free. It is filed as cell-based. The procedure:
as §5

In a further assay the target is T4, Ret (M918T) (Homo sapiens, UniProt P07949, M918T).
T4 construct: purchased DiscoveRx Corporation (KinomeScan service)
Nature of the assay: KinomeScan competition binding assay.
Excerpt: as §3, §6

In the next assay the target is T5, Ysk4 (Homo sapiens, UniProt Q56UN5).
T5 construct: purchased DiscoveRx Corporation (KinomeScan service)
The experiment in a line: KinomeScan competition binding assay.
Excerpt: as §3, §6

The next assay concerns the target T6, Flt3 (D835H) (Homo sapiens, UniProt P36888, D835H).
T6 construct: purchased DiscoveRx Corporation (KinomeScan service)
The experiment in a line: KinomeScan competition binding assay.
Excerpt: as §3, §6

Another assay has as its target c-Kit (D816H) (Homo sapiens, UniProt P10721, D816H). Nature of the assay: KinaseProfiler kinase activity assay. In kind it is biochemical. The arrangement: purchased EMD Millipore Corp. (KinaseProfiler service). The procedure:
as §2, §4

The test system of assay [5] is T315I-mutated BCR-ABL1 transduced bone marrow cells. The experiment in a line: Preclinical CML model, bone marrow cells transduced with T315I-mutated BCR-ABL1. In kind it is in vivo. To be noted: 25 (or 50) mg/Kg twice per day; Balb/c mice. The procedure:
6- to 8 week old male Balb/c mice were sublethally irradiated and i.v. injected with 0.5×10^6 retroviral transduced BM cells (pMSCV_gfp/BCR-ABL_T315I).
Bone marrow donor mice: To harvest donor bone marrow mice were injected subcutaneously with 5-FU (150 mg/kg mice). The bone marrow was isolated five days later and transduced with the desired retroviral construct. [Daley, G. Q., R. A. Van Etten, and D. Baltimore, Induction of chronic myelogenous leukemia in mice by the P210bcr/abl gene of the Philadelphia chromosome. Science, 1990. 247(4944): p. 824-30.]

The target in another assay is c-Kit (Homo sapiens, UniProt P10721). Nature of the assay: biochemical.
Excerpt: as §3, §6

Assay [6] has as its target T2, Abl. The experiment in a line: biochemical.
Excerpt: as §3, §6

Each structure is given as a SMILES string.

T2 sequence (P00519 whole entry): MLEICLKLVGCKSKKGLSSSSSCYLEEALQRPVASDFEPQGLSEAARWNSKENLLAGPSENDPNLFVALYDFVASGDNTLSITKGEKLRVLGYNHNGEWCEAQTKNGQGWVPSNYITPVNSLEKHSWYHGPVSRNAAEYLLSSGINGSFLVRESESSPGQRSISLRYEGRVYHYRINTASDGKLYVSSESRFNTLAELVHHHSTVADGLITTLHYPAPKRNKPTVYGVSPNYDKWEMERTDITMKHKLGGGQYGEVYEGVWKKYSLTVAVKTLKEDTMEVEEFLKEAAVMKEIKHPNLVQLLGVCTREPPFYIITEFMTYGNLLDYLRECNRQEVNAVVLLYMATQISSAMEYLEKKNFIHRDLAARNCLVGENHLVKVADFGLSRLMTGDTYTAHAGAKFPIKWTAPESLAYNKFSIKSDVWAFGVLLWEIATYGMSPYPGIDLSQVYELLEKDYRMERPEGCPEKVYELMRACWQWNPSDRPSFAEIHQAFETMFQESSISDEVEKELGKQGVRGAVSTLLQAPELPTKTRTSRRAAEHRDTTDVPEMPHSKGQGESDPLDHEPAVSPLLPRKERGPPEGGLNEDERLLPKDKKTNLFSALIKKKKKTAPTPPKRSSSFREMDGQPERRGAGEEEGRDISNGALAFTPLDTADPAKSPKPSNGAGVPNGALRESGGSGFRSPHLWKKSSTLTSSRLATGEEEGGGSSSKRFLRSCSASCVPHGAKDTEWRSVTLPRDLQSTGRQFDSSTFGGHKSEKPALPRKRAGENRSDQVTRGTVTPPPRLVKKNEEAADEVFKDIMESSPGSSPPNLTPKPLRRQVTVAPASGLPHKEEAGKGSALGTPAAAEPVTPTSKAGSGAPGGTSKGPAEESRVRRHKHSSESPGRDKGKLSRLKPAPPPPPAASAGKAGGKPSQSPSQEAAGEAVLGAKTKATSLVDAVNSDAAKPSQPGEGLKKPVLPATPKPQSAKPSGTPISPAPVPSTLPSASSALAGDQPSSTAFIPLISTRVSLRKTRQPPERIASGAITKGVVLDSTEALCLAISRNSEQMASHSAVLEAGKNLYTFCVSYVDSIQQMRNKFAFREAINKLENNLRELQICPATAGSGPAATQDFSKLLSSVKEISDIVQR
Sequence of c-Kit (D816H) (P10721 26-976 D816H): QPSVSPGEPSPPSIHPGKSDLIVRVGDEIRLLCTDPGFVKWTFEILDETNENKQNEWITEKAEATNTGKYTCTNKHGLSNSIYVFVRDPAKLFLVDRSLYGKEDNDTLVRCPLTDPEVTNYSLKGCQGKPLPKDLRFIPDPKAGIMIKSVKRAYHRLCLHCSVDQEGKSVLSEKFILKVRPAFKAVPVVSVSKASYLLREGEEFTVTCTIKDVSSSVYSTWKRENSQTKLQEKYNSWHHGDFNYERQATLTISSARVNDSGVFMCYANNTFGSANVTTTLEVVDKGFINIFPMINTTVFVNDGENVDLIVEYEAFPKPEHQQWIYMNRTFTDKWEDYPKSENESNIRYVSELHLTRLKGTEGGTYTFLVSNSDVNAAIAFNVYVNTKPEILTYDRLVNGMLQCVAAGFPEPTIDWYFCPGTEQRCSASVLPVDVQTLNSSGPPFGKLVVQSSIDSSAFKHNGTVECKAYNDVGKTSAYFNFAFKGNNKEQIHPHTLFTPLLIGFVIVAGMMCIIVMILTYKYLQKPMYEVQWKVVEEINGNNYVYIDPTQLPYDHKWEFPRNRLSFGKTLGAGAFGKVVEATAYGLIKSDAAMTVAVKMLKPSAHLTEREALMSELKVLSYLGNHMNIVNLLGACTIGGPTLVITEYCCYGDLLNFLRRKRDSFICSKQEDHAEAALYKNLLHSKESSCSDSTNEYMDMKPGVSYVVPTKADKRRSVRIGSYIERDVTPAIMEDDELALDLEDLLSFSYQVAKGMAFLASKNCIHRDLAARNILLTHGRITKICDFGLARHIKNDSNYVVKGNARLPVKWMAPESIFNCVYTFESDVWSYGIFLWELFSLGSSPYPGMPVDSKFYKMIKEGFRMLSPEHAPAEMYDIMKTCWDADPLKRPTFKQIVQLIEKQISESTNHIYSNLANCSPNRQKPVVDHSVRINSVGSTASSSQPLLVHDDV
Sequence of c-Kit (P10721 26-976): as the sequence (P10721 26-976 D816H) above, with H791D counted along it
T5 sequence (Q56UN5 whole entry): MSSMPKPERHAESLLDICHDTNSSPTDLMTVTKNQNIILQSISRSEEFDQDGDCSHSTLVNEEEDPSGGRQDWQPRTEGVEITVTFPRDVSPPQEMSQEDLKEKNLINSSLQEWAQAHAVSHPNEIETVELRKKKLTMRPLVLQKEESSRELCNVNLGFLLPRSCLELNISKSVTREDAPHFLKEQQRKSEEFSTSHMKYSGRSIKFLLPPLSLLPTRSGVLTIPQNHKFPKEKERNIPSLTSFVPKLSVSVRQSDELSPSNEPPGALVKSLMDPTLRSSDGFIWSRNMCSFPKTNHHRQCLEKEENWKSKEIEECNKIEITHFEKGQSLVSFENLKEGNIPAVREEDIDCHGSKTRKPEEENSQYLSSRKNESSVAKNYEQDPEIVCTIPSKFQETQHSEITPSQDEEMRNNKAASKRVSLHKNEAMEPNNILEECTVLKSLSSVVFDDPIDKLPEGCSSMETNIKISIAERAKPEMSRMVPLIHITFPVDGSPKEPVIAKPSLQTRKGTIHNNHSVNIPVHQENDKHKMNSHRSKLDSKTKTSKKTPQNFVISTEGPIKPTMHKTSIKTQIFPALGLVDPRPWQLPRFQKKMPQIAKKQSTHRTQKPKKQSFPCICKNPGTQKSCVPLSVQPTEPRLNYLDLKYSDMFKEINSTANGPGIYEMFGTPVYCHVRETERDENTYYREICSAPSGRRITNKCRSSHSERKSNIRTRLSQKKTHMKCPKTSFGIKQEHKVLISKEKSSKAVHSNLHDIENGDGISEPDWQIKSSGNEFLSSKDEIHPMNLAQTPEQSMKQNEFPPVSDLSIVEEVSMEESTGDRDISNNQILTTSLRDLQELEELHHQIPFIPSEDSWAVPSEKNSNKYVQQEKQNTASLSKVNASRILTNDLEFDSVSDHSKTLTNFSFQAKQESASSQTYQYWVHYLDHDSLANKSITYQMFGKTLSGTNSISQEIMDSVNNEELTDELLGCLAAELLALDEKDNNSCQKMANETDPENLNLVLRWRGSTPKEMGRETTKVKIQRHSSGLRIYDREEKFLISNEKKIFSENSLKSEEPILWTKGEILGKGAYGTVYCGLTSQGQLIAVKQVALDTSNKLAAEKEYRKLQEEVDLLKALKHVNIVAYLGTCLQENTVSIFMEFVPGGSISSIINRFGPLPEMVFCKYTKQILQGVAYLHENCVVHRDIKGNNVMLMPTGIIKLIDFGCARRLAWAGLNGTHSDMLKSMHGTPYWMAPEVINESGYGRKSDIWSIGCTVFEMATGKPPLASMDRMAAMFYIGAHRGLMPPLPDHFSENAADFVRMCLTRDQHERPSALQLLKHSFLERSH
T4 sequence (P07949 29-1114 M918T): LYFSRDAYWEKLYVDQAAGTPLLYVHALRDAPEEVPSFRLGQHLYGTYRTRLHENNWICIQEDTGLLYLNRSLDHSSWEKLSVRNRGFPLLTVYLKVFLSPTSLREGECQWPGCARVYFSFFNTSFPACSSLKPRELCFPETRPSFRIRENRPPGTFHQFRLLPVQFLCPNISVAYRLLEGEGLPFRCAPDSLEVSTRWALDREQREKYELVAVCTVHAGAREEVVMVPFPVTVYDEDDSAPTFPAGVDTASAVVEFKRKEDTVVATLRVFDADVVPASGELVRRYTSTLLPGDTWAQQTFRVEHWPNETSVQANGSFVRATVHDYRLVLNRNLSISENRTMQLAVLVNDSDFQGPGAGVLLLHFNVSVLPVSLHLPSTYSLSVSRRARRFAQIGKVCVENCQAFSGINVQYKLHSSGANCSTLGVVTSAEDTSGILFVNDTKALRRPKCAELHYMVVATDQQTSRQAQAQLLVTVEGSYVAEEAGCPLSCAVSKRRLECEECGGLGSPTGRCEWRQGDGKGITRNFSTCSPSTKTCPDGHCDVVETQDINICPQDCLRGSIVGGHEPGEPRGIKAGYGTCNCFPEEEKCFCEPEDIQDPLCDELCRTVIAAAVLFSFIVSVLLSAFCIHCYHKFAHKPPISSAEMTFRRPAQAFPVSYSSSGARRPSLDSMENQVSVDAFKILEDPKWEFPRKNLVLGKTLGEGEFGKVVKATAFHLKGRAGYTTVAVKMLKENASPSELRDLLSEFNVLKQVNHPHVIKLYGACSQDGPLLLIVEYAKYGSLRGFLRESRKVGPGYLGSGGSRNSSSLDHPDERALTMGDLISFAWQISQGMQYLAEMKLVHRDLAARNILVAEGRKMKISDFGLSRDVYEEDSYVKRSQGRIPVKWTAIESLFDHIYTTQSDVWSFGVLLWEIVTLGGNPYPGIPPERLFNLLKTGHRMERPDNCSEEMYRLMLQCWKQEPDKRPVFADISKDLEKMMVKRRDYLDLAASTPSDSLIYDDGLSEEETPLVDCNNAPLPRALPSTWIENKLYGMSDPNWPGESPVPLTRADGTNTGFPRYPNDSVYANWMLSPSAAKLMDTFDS
T1 sequence (P10721 26-976 V654A): as the sequence (P10721 26-976 D816H) above, with V629A, H791D counted along it
T3 sequence (P10721 26-976 V560G): as the sequence (P10721 26-976 D816H) above, with V535G, H791D counted along it
Sequence of c-Kit (D816V) (P10721 26-976 D816V): as the sequence (P10721 26-976 D816H) above, with H791V counted along it
Method for c-Kit (V560G): (§7) KinaseProfiler™ assays (EMD Millipore Corp. Billerica, Mass., USA) are radioligand binding assays with purified or partially-purified human kinases. Most of the KinaseProfiler™ assays are conducted in 20 mM MOPS, 1 mM EDTA, 0.01% Brij-35, 5% Glycerol, 0.1% b-mercaptoethanol, 1 mg/mL BSA. The assay involves the transfer of ^32P from γ-^32P-ATP to the target peptide, followed by washing and trapping of the labeled peptide on a filter. The concentration of γ-^32P-ATP used was at the established Km for ATP.
Method for c-Kit (V654A): as §7

The Kd is the constant that tells how readily two partners part at equilibrium. Low values mean a tighter complex, high ones a looser complex. As to `Nc1nc(Nc2ccc3c(c2)CC[C@@H](N2CCCC2)CC3)nn1-c1cc2c(nn1)-c1ccccc1CCC2` [Compound A, 1-(6,7-dihydro-5H-benzo[6,7]cyclohepta[1,2-c]pyridazine-3-yl)-N^3-(7-(S)-(pyrrolidin-1-yl)-6,7,8,9-tetrahydro-5H-benzo[7]annulene-2-yl)-1H-1,2,4-triazole-3,5-diamine], in the assay on BaF3/wt-BCR-ABL cells, the “inhibition of wild type CML in vivo (tumor volume)” value is “potentially inhibits”. Moreover, the IC50 against c-Kit (V654A) is 286 nM; against Abl [2], 51 nM; in assay [3] it was 570 nM; on c-Kit (V560G), 45 nM; in [4] it was 796 nM; against c-Kit (D816H), 8 nM. Further, the “inhibition range, Flt3 mutations” value in [1] was in the range of 8 to 29 nM. In addition, in the assay with BaF3/T315I cells, the “inhibition of T315I mutated CML in vivo (tumor volume)” value was “potentially inhibits”. The dissociation constant (Kd) at Stk10 turned out to be 9.2 nM; on Flt4, 460 nM; at c-Kit (D816V) it was 10.2 nM; on Ret (M918T), 30 nM; at Ysk4, 1.6 nM; at Flt3 (D835H), 8.4 nM. Further, the values for the Kd on c-Kit and on Abl [6] were 104 nM and 52 nM, respectively. Further, in [5], the leukemia cell burden entry was “reduced leukemia cell burden”.
